# Experimental data from paper PMC4775085 (ACS chemical neuroscience, 2015).
# Legend:
# HDAC8 = target: T1, HDAC8 (Homo sapiens, UniProt Q9BY41); assay: HDAC8 enzymatic inhibition assay
# T1 sequence (Q9BY41 1-377): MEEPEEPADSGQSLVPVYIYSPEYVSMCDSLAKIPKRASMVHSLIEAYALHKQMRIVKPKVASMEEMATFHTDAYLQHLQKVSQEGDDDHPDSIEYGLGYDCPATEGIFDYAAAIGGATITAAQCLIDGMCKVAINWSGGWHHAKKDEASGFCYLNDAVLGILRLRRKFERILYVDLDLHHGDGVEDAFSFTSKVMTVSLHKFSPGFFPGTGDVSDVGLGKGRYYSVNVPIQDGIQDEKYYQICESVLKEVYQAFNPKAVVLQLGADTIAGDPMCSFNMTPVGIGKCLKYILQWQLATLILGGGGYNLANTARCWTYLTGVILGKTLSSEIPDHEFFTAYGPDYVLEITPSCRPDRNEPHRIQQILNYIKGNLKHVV
# Plasma stability, human = type: in vitro ADME; conditions: 120 min
# Caco-2 permeability = type: in vitro ADME; conditions: human, Caco-2, pH 7.4
# [1] = Liver microsomes stability, human; type: in vitro ADME
# mutant HSPB1 DRG neurons = assay: Mitochondrial axonal transport in mutant HSPB1 DRG neurons; type: cell-based, mouse; conditions: DRG neurons from transgenic mutant HSPB1 mice, 100 nM overnight
# HDAC4 = HDAC4 (Homo sapiens, UniProt P56524); assay: HDAC4 enzymatic inhibition assay
# CYP 3A4-M = CYP 3A4-M (Homo sapiens, UniProt P08684); assay: CYP inhibition 3A4-M; type: in vitro ADME
# HDAC5 = HDAC5 (Homo sapiens, UniProt Q9UQL6); assay: HDAC5 enzymatic inhibition assay
# CYP 1A2 = target: T2, CYP 1A2 (Homo sapiens, UniProt P05177); assay: CYP inhibition 1A2
# T2 sequence (P05177 1-516): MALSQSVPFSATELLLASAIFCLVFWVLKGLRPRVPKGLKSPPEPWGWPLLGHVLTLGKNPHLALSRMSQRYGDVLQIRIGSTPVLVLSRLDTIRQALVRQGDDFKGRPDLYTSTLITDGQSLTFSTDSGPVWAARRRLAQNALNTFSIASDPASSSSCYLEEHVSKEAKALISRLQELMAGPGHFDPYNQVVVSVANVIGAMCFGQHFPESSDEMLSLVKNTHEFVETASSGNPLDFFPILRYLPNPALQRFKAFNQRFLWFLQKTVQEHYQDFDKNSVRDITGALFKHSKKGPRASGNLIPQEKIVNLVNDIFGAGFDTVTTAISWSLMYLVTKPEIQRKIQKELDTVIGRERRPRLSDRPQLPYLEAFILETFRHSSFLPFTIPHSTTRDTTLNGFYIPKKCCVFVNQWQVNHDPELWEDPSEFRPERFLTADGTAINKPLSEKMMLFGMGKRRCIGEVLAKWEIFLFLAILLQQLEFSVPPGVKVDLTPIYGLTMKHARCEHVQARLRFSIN
# [2] = Hepatocyte stability, human; type: in vitro ADME; conditions: hepatocytes
# [3] = Hepatocyte stability, mouse; type: in vitro ADME; conditions: hepatocytes
# CYP 2C19 = CYP 2C19 (Homo sapiens, UniProt P33261); assay: CYP inhibition 2C19
# CYP 2D6 = CYP 2D6 (Homo sapiens, UniProt P10635); assay: CYP inhibition 2D6; type: in vitro ADME
# Aqueous solubility = conditions: PBS, pH 7.4, aqueous buffer
# [4] = Liver microsomes stability, mouse; type: in vitro ADME
# [5] = Intravenous and oral plasma pharmacokinetics in male CD1 mice; type: in vivo; conditions: CD1, mouse
# Plasma stability, mouse = type: in vitro ADME; conditions: 120 min
# CYP 2C9 = CYP 2C9 (Homo sapiens, UniProt P11712); assay: CYP inhibition 2C9
# CYP 3A4-T = CYP 3A4-T (Homo sapiens, UniProt P08684); assay: CYP inhibition 3A4-T; type: in vitro ADME
# Chain of CYP 3A4-T (P08684 whole entry): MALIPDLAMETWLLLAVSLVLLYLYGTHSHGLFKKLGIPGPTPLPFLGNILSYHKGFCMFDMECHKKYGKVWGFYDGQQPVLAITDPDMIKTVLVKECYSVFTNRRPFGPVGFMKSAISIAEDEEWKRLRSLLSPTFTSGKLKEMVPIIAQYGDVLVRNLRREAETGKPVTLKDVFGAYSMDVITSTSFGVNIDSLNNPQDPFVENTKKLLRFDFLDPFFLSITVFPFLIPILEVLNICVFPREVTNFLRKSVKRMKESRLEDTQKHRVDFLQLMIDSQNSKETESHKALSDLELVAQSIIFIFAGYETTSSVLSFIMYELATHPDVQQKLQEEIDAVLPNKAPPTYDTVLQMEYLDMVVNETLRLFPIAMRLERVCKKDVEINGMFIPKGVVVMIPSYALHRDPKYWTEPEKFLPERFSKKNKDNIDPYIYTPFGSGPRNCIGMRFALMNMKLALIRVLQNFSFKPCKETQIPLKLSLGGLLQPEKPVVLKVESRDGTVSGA
# Chain of CYP 2C19 (P33261 whole entry): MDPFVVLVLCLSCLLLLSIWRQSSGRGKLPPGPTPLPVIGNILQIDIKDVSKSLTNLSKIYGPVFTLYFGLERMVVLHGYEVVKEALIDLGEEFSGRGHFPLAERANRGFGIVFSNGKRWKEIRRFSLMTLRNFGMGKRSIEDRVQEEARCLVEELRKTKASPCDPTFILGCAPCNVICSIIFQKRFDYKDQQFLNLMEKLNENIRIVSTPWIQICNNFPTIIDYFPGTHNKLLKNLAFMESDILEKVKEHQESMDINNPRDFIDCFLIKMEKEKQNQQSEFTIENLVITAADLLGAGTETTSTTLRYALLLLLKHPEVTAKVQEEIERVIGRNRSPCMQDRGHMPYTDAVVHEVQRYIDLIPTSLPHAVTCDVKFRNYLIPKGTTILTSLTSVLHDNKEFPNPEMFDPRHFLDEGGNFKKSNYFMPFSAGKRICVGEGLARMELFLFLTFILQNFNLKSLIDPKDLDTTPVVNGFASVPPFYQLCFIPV
# Chain of CYP 2C9 (P11712 whole entry): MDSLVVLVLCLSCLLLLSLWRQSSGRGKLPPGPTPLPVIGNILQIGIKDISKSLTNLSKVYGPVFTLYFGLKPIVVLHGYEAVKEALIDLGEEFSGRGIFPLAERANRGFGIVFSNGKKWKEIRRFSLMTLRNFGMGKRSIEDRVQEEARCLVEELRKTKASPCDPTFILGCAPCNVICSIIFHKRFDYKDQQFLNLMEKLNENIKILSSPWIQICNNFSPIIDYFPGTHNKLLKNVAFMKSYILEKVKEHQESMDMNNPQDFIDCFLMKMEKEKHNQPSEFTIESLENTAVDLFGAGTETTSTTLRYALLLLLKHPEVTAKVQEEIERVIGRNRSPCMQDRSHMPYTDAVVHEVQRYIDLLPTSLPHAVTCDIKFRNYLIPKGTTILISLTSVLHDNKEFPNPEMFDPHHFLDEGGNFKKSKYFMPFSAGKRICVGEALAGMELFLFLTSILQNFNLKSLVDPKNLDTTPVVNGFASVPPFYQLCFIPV
# Chain of HDAC5 (Q9UQL6 whole entry): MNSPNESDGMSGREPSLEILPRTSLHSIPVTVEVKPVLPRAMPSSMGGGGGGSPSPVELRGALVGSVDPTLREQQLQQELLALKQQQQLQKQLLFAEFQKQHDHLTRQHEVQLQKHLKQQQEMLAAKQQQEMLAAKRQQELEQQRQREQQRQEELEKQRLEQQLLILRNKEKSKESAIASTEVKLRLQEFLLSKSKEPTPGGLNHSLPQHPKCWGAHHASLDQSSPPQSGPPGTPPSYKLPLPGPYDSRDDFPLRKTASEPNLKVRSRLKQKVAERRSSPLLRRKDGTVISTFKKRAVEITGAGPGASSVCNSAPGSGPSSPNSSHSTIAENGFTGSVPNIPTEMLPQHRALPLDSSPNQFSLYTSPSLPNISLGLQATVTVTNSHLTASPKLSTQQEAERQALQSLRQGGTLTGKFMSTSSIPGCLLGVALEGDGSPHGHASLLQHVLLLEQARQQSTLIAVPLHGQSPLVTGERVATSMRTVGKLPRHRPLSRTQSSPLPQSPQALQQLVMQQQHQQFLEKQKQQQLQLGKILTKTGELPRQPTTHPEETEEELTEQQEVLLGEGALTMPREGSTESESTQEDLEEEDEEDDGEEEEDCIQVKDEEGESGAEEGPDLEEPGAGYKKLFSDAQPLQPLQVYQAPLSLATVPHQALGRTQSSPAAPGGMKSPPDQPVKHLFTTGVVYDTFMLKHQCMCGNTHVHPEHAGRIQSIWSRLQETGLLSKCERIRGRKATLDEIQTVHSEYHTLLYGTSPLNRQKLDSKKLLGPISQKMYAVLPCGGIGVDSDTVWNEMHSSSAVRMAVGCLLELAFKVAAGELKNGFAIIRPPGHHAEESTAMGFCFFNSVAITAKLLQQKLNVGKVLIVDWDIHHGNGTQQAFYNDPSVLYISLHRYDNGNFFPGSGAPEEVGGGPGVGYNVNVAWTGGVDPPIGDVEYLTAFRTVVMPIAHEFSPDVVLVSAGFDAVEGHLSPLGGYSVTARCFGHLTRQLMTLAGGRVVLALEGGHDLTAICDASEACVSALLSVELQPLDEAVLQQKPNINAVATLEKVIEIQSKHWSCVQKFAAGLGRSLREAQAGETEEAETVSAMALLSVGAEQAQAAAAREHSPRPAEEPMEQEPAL
# Chain of HDAC4 (P56524 whole entry): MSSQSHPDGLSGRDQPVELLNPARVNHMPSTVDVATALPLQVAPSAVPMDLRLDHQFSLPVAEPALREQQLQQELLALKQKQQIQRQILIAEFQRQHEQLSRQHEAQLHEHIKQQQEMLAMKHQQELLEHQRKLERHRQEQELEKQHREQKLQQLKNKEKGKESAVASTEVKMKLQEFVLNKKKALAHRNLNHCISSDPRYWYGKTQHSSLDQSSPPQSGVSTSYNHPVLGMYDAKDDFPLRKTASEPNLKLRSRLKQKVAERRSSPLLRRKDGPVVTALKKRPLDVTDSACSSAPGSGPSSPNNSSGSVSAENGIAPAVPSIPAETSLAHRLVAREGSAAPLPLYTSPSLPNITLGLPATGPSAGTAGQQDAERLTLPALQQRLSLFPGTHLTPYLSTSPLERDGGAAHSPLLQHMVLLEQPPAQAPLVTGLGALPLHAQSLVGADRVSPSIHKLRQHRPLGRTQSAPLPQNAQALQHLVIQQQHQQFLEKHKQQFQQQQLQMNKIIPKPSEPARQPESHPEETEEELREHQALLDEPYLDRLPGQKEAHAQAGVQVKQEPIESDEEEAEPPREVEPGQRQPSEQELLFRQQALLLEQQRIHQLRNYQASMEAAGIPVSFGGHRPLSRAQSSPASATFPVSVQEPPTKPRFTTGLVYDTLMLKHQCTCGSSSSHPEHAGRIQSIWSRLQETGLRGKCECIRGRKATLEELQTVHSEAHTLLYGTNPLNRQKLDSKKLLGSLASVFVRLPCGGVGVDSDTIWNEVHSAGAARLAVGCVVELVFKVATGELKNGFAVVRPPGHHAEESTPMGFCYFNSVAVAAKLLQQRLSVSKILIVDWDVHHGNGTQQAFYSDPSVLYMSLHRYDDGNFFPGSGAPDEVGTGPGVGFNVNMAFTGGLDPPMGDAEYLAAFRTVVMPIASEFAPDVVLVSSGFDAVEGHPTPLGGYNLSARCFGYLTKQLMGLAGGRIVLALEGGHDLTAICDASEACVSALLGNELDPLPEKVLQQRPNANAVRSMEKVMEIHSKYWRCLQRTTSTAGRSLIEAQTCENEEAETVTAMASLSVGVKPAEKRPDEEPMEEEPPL
# Chain of CYP 2D6 (P10635 whole entry): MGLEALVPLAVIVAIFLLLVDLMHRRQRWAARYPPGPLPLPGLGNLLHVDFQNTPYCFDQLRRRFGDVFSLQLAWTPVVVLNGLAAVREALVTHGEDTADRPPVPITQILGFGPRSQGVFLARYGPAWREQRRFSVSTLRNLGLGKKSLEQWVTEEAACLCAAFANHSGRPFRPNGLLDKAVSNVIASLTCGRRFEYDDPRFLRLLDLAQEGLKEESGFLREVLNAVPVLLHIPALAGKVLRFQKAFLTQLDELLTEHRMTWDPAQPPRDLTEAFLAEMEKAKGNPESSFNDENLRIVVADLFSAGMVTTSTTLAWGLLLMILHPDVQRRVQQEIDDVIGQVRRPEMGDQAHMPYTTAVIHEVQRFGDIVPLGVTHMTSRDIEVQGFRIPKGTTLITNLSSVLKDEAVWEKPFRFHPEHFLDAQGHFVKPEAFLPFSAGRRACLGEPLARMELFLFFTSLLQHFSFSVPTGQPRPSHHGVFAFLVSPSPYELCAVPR
# Chain of CYP 3A4-M (P08684 whole entry): as the sequence (P08684 whole entry) above
smiles,measurement,setting,value
"Cc1nc2ccccc2n1Cc1ccc(C(=O)NO)cc1F [23d, 3-Fluoro-N-hydroxy-4-[(2-methyl-1-benzimidazolyl)methyl]-benzamide]",IC50,HDAC8,0.176 µM
same,plasma stability remaining percentage,"Plasma stability, human",93.4%
same,Papp A→B,Caco-2 permeability,3.89 ×10⁻⁶ cm/s
same,Papp B→A,Caco-2 permeability,13.2 ×10⁻⁶ cm/s
same,half-life,[1],32.4 h
same,mitochondrial axonal transport (number of moving mitochondria per 100 μm of neurite),mutant HSPB1 DRG neurons,able to restore the movement of mitochondria
same,IC50,HDAC4,0.47 µM
same,IC50,CYP 3A4-M,> 50 µM
same,IC50,HDAC5,0.182 µM
same,IC50,CYP 1A2,> 50 µM
same,half-life,[2],24.8 h
same,half-life,[3],0.667 h
same,IC50,CYP 2C19,> 50 µM
same,IC50,CYP 2D6,> 50 µM
same,solubility,Aqueous solubility,302 µM
same,half-life,[4],4.75 h
same,AUC(0-inf),"[5]; iv, 3 mg/kg",1480 ng·h/mL
same,Vd,"[5]; iv, 3 mg/kg",0.382 L/kg
same,clearance,"[5]; iv, 3 mg/kg",34 mL/min/kg
same,half-life,"[5]; iv, 3 mg/kg",0.851 h
same,AUC(0-inf),"[5]; po, 30 mg/kg",3100 ± 84 ng·h/mL
same,Cmax,"[5]; po, 30 mg/kg",4370 ± 470 ng/mL
same,Tmax,"[5]; po, 30 mg/kg",0.25 h
same,plasma stability remaining percentage,"Plasma stability, mouse",87.9%
same,IC50,CYP 2C9,> 50 µM
same,IC50,CYP 3A4-T,36 µM
